Experimental data: ChEMBL document CHEMBL1177792, “Pre-clinical characterization of aryloxypyridine amides as histamine H3 receptor antagonists: identification of candidates for clinical development” (Bioorg Med Chem Lett, 2010)
Values belong to the compound of their own block, whether it stands above or below them.

What was measured:
[1] = biological target: T1, Histamine H3 receptor (Homo sapiens, UniProt Q9Y5N1); assay: Displacement of [125I]-iodoproxyfan from human recombinant histamine H3 receptor expressed in human SK-N-MC cells after 1 hr by scintillation counting; type: cell-based
[2] = biological target: T2, Histamine H3 receptor (Rattus norvegicus, UniProt Q9QYN8); assay: Antagonist activity at rat histamine H3 receptor expressed in human SK-N-MC cells assessed as inhibition of forskolin-induced cAMP accumulation after 6 hrs; type: functional, cell-based; conditions: read-out: pA2 (converted)
[3] = Metabolic stability in rat liver microsomes assessed as compound remaining after 30 mins; type: ADME, Microsome; conditions: read-out: Stability
[4] = Metabolic stability in human liver microsomes assessed as compound remaining after 30 mins; type: ADME, Microsome; conditions: read-out: Stability
[5] = tested on: Rattus norvegicus; assay: Ex vivo receptor occupancy of histamine H3 receptor in Wistar rat brain at 10 mg/kg, po after 1 hr by autoradiography; type: functional
[6] = Drug level in Wistar rat brain at 10 mg/kg, po after 1 hr; type: ADME, organism-based; set-up: dose 10 mg/kg, route oral; conditions: read-out: Drug uptake
[7] = Plasma concentration in Wistar rat at 10 mg/kg, po after 1 hr; type: ADME, organism-based; set-up: dose 10 mg/kg, route oral; conditions: read-out: Drug uptake
[8] = biological target: T2, Histamine H3 receptor; assay: Binding affinity to histamine H3 receptor in rat brain; type: tissue-based
[9] = Clearance in Sprague-Dawley rat at 1 mg/kg, iv and 10 mg/kg, po; type: ADME, organism-based; conditions: in vivo
[10] = Volume of distribution at steady state in Sprague-Dawley rat at 1 mg/kg, iv and 10 mg/kg, po; type: ADME, organism-based; conditions: in vivo, read-out: Vdss
[11] = Half life in Sprague-Dawley rat at 1 mg/kg, iv and 10 mg/kg, po; type: ADME, organism-based; conditions: in vivo
[12] = Bioavailability in Sprague-Dawley rat at 1 mg/kg, iv and 10 mg/kg, po; type: ADME, organism-based; conditions: in vivo
[13] = biological target: T3, Voltage-gated inwardly rectifying potassium channel KCNH2 (Homo sapiens, UniProt Q12809); assay: Displacement of radiolabeled astemizole from human ERG
[14] = biological target: hERG (KCNH2) (Homo sapiens, UniProt Q12809); assay: Displacement of radiolabeled astemizole from human ERG at 10 uM; conditions: probe radiolabeled astemizole
[15] = biological target: T3, Voltage-gated inwardly rectifying potassium channel KCNH2; assay: Inhibition of human ERG by patch clamp technique
[16] = biological target: T1, Histamine H3 receptor; assay: Antagonist activity at human histamine H3 receptor expressed in human SK-N-MC cells assessed as inhibition of forskolin-induced cAMP accumulation after 6 hrs; type: functional, cell-based; conditions: read-out: pA2 (converted)
[17] = Clearance in Beagle dog at 1 mg/kg, iv and 5 mg/kg, po; type: ADME, organism-based, Canis lupus familiaris; conditions: in vivo
[18] = Volume of distribution at steady state in Beagle dog at 1 mg/kg, iv and 5 mg/kg, po; type: ADME, organism-based, Canis lupus familiaris; conditions: in vivo, read-out: Vdss
[19] = Half life in Beagle dog at 1 mg/kg, iv and 5 mg/kg, po; type: ADME, organism-based, Canis lupus familiaris; conditions: in vivo
[20] = Bioavailability in Beagle dog at 1 mg/kg, iv and 5 mg/kg, po; type: ADME, organism-based, Canis lupus familiaris; conditions: in vivo

T2 sequence (Q9QYN8 whole entry): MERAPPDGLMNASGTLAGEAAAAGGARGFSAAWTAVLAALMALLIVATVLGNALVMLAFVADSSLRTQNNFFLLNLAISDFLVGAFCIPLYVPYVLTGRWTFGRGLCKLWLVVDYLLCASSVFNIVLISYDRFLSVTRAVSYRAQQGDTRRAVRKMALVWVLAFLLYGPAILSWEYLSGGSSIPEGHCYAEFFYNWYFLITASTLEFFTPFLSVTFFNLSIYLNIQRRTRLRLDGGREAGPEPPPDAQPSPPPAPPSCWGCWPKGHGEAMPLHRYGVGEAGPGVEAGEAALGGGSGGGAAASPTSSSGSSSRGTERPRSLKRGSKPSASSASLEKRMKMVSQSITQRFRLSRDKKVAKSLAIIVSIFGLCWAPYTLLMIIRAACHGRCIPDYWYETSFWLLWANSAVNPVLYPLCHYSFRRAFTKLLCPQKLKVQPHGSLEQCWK
T3 sequence (Q12809 whole entry): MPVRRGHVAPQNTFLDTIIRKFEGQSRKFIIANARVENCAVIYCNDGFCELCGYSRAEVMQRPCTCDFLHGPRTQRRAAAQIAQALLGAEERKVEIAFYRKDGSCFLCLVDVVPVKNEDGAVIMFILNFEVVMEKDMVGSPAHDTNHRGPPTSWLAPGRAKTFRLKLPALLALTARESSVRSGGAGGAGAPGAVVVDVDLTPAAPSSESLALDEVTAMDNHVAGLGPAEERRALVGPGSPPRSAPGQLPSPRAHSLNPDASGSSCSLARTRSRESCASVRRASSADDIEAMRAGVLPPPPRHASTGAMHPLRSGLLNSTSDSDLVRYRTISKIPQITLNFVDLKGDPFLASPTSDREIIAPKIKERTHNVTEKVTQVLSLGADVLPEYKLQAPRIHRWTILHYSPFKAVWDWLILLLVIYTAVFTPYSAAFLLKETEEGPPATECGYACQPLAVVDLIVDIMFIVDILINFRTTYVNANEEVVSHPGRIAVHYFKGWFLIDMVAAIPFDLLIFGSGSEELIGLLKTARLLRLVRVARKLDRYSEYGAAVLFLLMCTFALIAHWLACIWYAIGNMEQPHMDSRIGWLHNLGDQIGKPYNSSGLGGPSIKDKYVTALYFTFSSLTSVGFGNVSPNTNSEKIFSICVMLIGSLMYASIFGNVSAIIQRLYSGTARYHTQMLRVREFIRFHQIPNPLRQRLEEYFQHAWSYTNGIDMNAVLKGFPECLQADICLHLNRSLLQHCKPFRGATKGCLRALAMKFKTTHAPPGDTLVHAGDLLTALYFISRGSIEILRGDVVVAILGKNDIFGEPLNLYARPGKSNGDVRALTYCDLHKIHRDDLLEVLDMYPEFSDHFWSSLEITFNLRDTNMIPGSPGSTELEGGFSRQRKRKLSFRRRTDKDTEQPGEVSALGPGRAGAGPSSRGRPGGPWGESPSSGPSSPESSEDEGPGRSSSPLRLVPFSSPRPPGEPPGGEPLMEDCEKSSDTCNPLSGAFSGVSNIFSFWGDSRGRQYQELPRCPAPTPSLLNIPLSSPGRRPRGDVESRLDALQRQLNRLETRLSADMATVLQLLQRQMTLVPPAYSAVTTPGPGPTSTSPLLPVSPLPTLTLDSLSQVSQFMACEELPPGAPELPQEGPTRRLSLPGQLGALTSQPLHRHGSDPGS
hERG (KCNH2), sequence (Q12809 whole entry): as above
T1 sequence (Q9Y5N1 whole entry): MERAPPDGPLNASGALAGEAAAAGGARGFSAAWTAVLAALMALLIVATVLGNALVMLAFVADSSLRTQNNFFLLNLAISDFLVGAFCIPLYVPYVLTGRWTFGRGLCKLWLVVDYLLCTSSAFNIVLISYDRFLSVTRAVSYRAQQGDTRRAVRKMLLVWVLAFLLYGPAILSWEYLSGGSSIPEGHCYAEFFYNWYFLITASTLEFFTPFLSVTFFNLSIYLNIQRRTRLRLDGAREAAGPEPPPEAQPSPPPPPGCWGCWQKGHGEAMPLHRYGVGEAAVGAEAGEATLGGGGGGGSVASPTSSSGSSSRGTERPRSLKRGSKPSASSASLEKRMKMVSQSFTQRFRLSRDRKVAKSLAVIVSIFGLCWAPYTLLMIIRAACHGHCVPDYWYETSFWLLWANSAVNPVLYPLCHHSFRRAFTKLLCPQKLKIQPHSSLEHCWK

Ki [1]: 59 nM
Kb [2]: 3.98 nM
remaining at 0.5 h [3]: 63%
remaining at 0.5 h [4]: 95%
concentration at 1 h [6]: 2620 nM
concentration at 1 h [7]: 4470 nM
Ki [8]: 23 nM
clearance [9]: 36 mL/min/kg
Vd [10]: 3 L/kg
half-life [11]: 1.3 h
bioavailability [12]: 62%
Structure (SMILES): O=C(c1ccc(Oc2ccc(Cl)cc2)nc1)N1CCCN(C2CCC2)CC1
Activity [5]: 95%
IC50 [13]: > 10000 nM
inhibition at 10 µM [14]: 23%
IC50 [15]: 1400 nM

Ki [1]: 260 nM
Structure (SMILES): CC(C)N1CCN(C(=O)c2ccc(Oc3ccccc3)nc2)CC1

Ki [1]: 2.9 nM
Kb [16]: 1.41 nM
Kb [2]: 26.3 nM
remaining at 0.5 h [3]: 56%
remaining at 0.5 h [4]: 95%
concentration at 1 h [6]: 2370 nM
concentration at 1 h [7]: 1020 nM
Ki [8]: 24 nM
clearance [9]: 80 mL/min/kg
Vd [10]: 4.5 L/kg
half-life [11]: 1 h
bioavailability [12]: 23%
clearance [17]: 35 mL/min/kg
Vd [18]: 3.6 L/kg
half-life [19]: 1.9 h
bioavailability [20]: 14%
Structure (SMILES): O=C(c1ccc(Oc2ccc(F)cc2)cn1)N1CCCN(C2CCC2)CC1
Activity [5]: 87%

Ki [1]: 12 nM
Structure (SMILES): N#Cc1cccc(Oc2ccc(C(=O)N3CCCN(C4CC4)CC3)cn2)c1

Ki [1]: 4.7 nM
Structure (SMILES): O=C(c1ccc(Oc2cccc(Cl)c2)cn1)N1CCCN(C2CCC2)CC1

Ki [1]: 17 nM
Structure (SMILES): O=C(c1cncc(Oc2ccc(F)cc2)c1)N1CCCN(C2CCC2)CC1

Ki [1]: 4.3 nM
Kb [16]: 0.537 nM
Structure (SMILES): O=C(c1ccc(Oc2ccccc2F)cn1)N1CCCN(C2CCC2)CC1

Ki [1]: 430 nM
Structure (SMILES): O=C(c1ccc(Oc2ccc(F)cc2)nc1)N1CCN(C2CC2)CC1

Ki [1]: 10 nM
Structure (SMILES): O=C(c1ccc(Oc2ccc(Cl)c(Cl)c2)cn1)N1CCCN(C2CC2)CC1

Ki [1]: 17 nM
Structure (SMILES): O=C(c1ccc(Oc2ccccc2Cl)nc1)N1CCCN(C2CCC2)CC1

Ki [1]: 10 nM
Structure (SMILES): O=C(c1ccc(Oc2ccccc2)nc1)N1CCCN(C2CC2)CC1

Ki [1]: 1040 nM
Structure (SMILES): O=C(c1cccc(Oc2ccc(Cl)c(Cl)c2)n1)N1CCCN(C2CC2)CC1

Ki [1]: 7.6 nM
remaining at 0.5 h [3]: 4%
remaining at 0.5 h [4]: 30%
concentration at 1 h [6]: 4790 nM
concentration at 1 h [7]: 1520 nM
Structure (SMILES): O=C(c1ccc(Oc2ccc(Cl)c(Cl)c2)nc1)N1CCCN(C2CCC2)CC1
Activity [5]: 100%

Ki [1]: 16 nM
Structure (SMILES): O=C(c1ccc(Oc2cccc(F)c2)nc1)N1CCCN(C2CC2)CC1

Kb [16]: 0.871 nM
Kb [2]: 5.01 nM
remaining at 0.5 h [3]: 58%
remaining at 0.5 h [4]: 98%
concentration at 1 h [6]: 1720 nM
concentration at 1 h [7]: 630 nM
clearance [9]: 104 mL/min/kg
Vd [10]: 5 L/kg
half-life [11]: 1 h
bioavailability [12]: 19%
Structure (SMILES): O=C(c1ccc(Oc2cccc(Cl)c2)nc1)N1CCCN(C2CCC2)CC1
Activity [5]: 96%
IC50 [13]: > 10000 nM
inhibition at 10 µM [14]: 28%
IC50 [15]: 1600 nM

Ki [1]: 160 nM
Structure (SMILES): O=C(c1cccc(Oc2ccc(Cl)c(Cl)c2)n1)N1CCCN(C2CCC2)CC1

Ki [1]: 4.1 nM
remaining at 0.5 h [3]: 86%
remaining at 0.5 h [4]: 99%
concentration at 1 h [6]: 1960 nM
concentration at 1 h [7]: 360 nM
clearance [9]: 118 mL/min/kg
Vd [10]: 4.2 L/kg
half-life [11]: 0.8 h
bioavailability [12]: 11%
Structure (SMILES): O=C(c1ccc(Oc2cccc(F)c2)nc1)N1CCCN(C2CCC2)CC1
Activity [5]: 88%
IC50 [13]: > 10000 nM
inhibition at 10 µM [14]: 0%
IC50 [15]: 5400 nM

Ki [1]: 5.5 nM
Structure (SMILES): O=C(c1ccc(Oc2ccc(Cl)cc2)cn1)N1CCCN(C2CCC2)CC1

Ki [1]: 860 nM
Structure (SMILES): CN1CCCN(C(=O)c2ccc(Oc3ccc(F)cc3)nc2)CC1

Ki [1]: 5.5 nM
Structure (SMILES): O=C(c1ccc(Oc2cccc(F)c2)cn1)N1CCCN(C2CCC2)CC1

Ki [1]: 34 nM
Structure (SMILES): CCN1CCCN(C(=O)c2ccc(Oc3ccc(F)cc3)nc2)CC1

Ki [1]: 110 nM
Structure (SMILES): CC(C)N1CCN(C(=O)c2ccc(Oc3cccc(C#N)c3)nc2)CC1
